The results in this text go back to PubChem BioAssay AID250 (DTP/NCI, 2004).

Several values for one entry are separate records, joined by “and”; a condition that tells them apart may be missing. Equal values may be shown once. Toxic doses and inconclusive results are not listed.

This assay has as its system BDF1 mice, L1210 leukemia sc, survival T/C. The experiment in a line: NCI In Vivo Anticancer Drug Screen. Data for tumor model L1210 Leukemia (subcutaneous) in B6D2F1 (BDF1) mice. The conditions noted are these: higher = longer survival. An outline of the steps:
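Expressed as T/C: measurement in compound-treated, tumor-bearing mice relative to vehicle-treated control mice, based on survival or tumor size.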

Setting [1] is: endpoint: median survival time, dose: 3.0 mg/kg/injection, schedule: Q01DX Z (sc), vehicle: methylcellulose (MC).
Setting [2] is: endpoint: median survival time, dose: 5.0 mg/kg/injection, schedule: Q01DX Z (sc), vehicle: methylcellulose (MC).
Setting [3] is: endpoint: median survival time, dose: 38.9 mg/kg/injection, schedule: Q01DX Z (sc), vehicle: methylcellulose (MC).
The mark [4] stands for this setting: endpoint: median survival time, dose: 64.8 mg/kg/injection, schedule: Q01DX Z (sc), vehicle: methylcellulose (MC).
Where [5] appears, read: endpoint: median survival time, dose: 108.0 mg/kg/injection, schedule: Q01DX Z (sc), vehicle: methylcellulose (MC).
The mark [6] stands for this setting: endpoint: median survival time, dose: 180.0 mg/kg/injection, schedule: Q01DX Z (sc), vehicle: methylcellulose (MC).
The mark [7] stands for this setting: endpoint: median survival time, dose: 300.0 mg/kg/injection, schedule: Q01DX Z (sc), vehicle: methylcellulose (MC).
Setting [8] is: endpoint: median survival time, dose: 39.0 mg/kg/injection, schedule: Q01DX Z (sc), vehicle: methylcellulose (MC).
[9] abbreviates: endpoint: median survival time, dose: 65.0 mg/kg/injection, schedule: Q01DX Z (sc), vehicle: methylcellulose (MC).
Setting [10] is: endpoint: median survival time, dose: 4.7 mg/kg/injection, schedule: Q01DX Z (sc), vehicle: saline.
[11] abbreviates: endpoint: median survival time, dose: 7.8 mg/kg/injection, schedule: Q01DX Z (sc), vehicle: saline.
Where [12] appears, read: endpoint: median survival time, dose: 13.0 mg/kg/injection, schedule: Q01DX Z (sc), vehicle: saline.

Turning to `Nc1ncnc2[nH]ncc12`, the T/C under setting [1] was 100 % of control; the T/C under setting [2] was 112 % of control; the T/C (endpoint: median survival time, dose: 8.4 mg/kg/injection, schedule: Q01DX Z (sc), vehicle: methylcellulose (MC)) was 112 % of control and 115 % of control; the T/C (endpoint: median survival time, dose: 14.0 mg/kg/injection, schedule: Q01DX Z (sc), vehicle: methylcellulose (MC)) was 108 % of control; the T/C (endpoint: median survival time, dose: 23.3 mg/kg/injection, schedule: Q01DX Z (sc), vehicle: methylcellulose (MC)) is 91 % of control; the T/C under setting [3] was 120 % of control. Moreover, the T/C by setting is: (endpoint: median survival time, dose: 46.8 mg/kg/injection, schedule: Q01DX Z (sc), vehicle: methylcellulose (MC)) 116 % of control; under setting [4], 100 % of control; (endpoint: median survival time, dose: 78.0 mg/kg/injection, schedule: Q01DX Z (sc), vehicle: methylcellulose (MC)) 100 % of control; under setting [5], 100 % of control; (endpoint: median survival time, dose: 130.0 mg/kg/injection, schedule: Q01DX Z (sc), vehicle: methylcellulose (MC)) 91 % of control; under setting [6], 100 % of control. In addition, the T/C under setting [7] is 100 % of control.

Turning to `CC[C@H]1CN2CCc3cc(OC)c(OC)cc3[C@@H]2C[C@@H]1C[C@H]1NCCc2cc(OC)c(OC)cc21`, the T/C (endpoint: median survival time, dose: 0.39 mg/kg/injection, schedule: Q03HX003 (sc), vehicle: saline) was 107 % of control; the T/C (endpoint: median survival time, dose: 0.65 mg/kg/injection, schedule: Q03HX003 (sc), vehicle: saline) was 92 % of control; the T/C (endpoint: median survival time, dose: 1.08 mg/kg/injection, schedule: Q03HX003 (sc), vehicle: saline) is 100 % of control; the T/C (endpoint: median survival time, dose: 1.8 mg/kg/injection, schedule: Q01DX009 (sc), vehicle: saline) was 100 % of control; the T/C (endpoint: median survival time, dose: 1.8 mg/kg/injection, schedule: Q03HX003 (sc), vehicle: saline) was 114 % of control; the T/C (endpoint: median survival time, dose: 3.0 mg/kg/injection, schedule: Q01DX009 (sc), vehicle: saline) is 103 % of control. For the same molecule, the T/C runs as follows: (endpoint: median survival time, dose: 5.0 mg/kg/injection, schedule: Q04DX003 (sc), vehicle: saline) 96 % of control; (endpoint: median survival time, dose: 8.4 mg/kg/injection, schedule: Q04DX003 (sc), vehicle: saline) 107 % of control; (endpoint: median survival time, dose: 16.0 mg/kg/injection, schedule: Q01DX001 (ip), vehicle: acid diluted with saline) 124 % of control.

Turning to `CN(C)c1ccc(/C=C/c2ccc3ccccc3[n+]2C)cc1`, the T/C (endpoint: median survival time, dose: 0.65 mg/kg/injection, schedule: Q01DX Z (sc), vehicle: methylcellulose (MC)) is 100 % of control; the T/C (endpoint: median survival time, dose: 1.08 mg/kg/injection, schedule: Q01DX Z (sc), vehicle: methylcellulose (MC)) is 100 % of control; the T/C (endpoint: median survival time, dose: 1.8 mg/kg/injection, schedule: Q01DX Z (sc), vehicle: methylcellulose (MC)) is 104 % of control; the T/C under setting [1] was 104 % of control; the T/C under setting [2] was 104 % of control.

With `CCSc1ncnc2nc[nH]c12`, the T/C is, setting by setting: under setting [3], 100 % of control; under setting [4], 100 % of control; under setting [5], 110 % of control; under setting [6], 100 % of control; under setting [7], 110 % of control.

On to `CCCCCCC(=O)O[C@H]1CC[C@H]2[C@@H]3CCC4=CC(=O)CC[C@]4(C)[C@H]3CC[C@]12C`, for which the T/C (endpoint: median survival time, dose: 5.0 mg/kg/injection, schedule: Q01DX009 (ip), vehicle: other) is 101 % of control; the T/C (endpoint: median survival time, dose: 5.0 mg/kg/injection, schedule: Q01DX009 (sc), vehicle: other) is 102 % of control and 105 % of control; the T/C (endpoint: median survival time, dose: 10.0 mg/kg/injection, schedule: Q01DX009 (ip), vehicle: other) is 102 % of control; the T/C (endpoint: median survival time, dose: 10.0 mg/kg/injection, schedule: Q01DX009 (sc), vehicle: other) was 100 % of control and 104 % of control; the T/C (endpoint: median survival time, dose: 20.0 mg/kg/injection, schedule: Q01DX009 (ip), vehicle: other) is 98 % of control; the T/C (endpoint: median survival time, dose: 20.0 mg/kg/injection, schedule: Q01DX009 (sc), vehicle: other) is 104 % of control and 105 % of control. The T/C runs as follows: (endpoint: median survival time, dose: 40.0 mg/kg/injection, schedule: Q01DX009 (ip), vehicle: other) 104 % of control; (endpoint: median survival time, dose: 40.0 mg/kg/injection, schedule: Q01DX009 (sc), vehicle: other) 101 % of control and 103 % of control; (endpoint: median survival time, dose: 80.0 mg/kg/injection, schedule: Q01DX009 (ip), vehicle: other) 97 % of control and 98 % of control; (endpoint: median survival time, dose: 160.0 mg/kg/injection, schedule: Q01DX009 (ip), vehicle: other) 94 % of control and 98 % of control; (endpoint: median survival time, dose: 320.0 mg/kg/injection, schedule: Q01DX009 (sc), vehicle: other) 88 % of control and 104 % of control; (endpoint: median survival time, dose: 640.0 mg/kg/injection, schedule: Q01DX009 (sc), vehicle: other) 95 % of control and 100 % of control.

`CC[C@H](c1ccc(O)cc1)[C@@H](CC)c1ccc(O)cc1`: the T/C is 100 % of control under setting [8], 100 % of control under setting [9] and 100 % of control under setting [5].

In the case of `Nc1nc(N)c2nc(CN(CCO)c3ccc(C(=O)NC(CCC(=O)O)C(=O)O)cc3)cnc2n1` (stereo unspecified), the T/C (endpoint: mean survival time, dose: 2.0 mg/kg/injection, schedule: Q01DX009 (ip), vehicle: sodium bicarbonate) is 160 % of control; the T/C (endpoint: mean survival time, dose: 4.0 mg/kg/injection, schedule: Q01DX009 (ip), vehicle: sodium bicarbonate) is 160 % of control; the T/C (endpoint: mean survival time, dose: 8.0 mg/kg/injection, schedule: Q01DX009 (ip), vehicle: sodium bicarbonate) was 191 % of control; the T/C (endpoint: mean survival time, dose: 8.0 mg/kg/injection, schedule: Q04DX003 (ip), vehicle: sodium bicarbonate) is 123 % of control; the T/C (endpoint: mean survival time, dose: 16.0 mg/kg/injection, schedule: Q01DX009 (ip), vehicle: sodium bicarbonate) was 154 % of control.

With `CN(N=O)C(=O)N[C@@H](C=O)[C@@H](O)[C@H](O)[C@H](O)CO`, the T/C (endpoint: median survival time, dose: 25.0 mg/kg/injection, schedule: Q01DX009 (sc), vehicle: other) was 123 % of control.

For the molecule `O=NN(CCCl)C(=O)NC1CC2CCC1C2` (stereo unspecified), the T/C is 305 % of control (endpoint: median survival time, dose: 23.0 mg/kg/injection, schedule: Q01DX Z (oral), vehicle: carboxymethylcellulose (CMC)); 321 % of control (endpoint: median survival time, dose: 23.0 mg/kg/injection, schedule: Q01DX Z (sc), vehicle: carboxymethylcellulose (CMC)); 542 % of control (endpoint: median survival time, dose: 39.0 mg/kg/injection, schedule: Q01DX Z (oral), vehicle: carboxymethylcellulose (CMC)); 500 % of control (endpoint: median survival time, dose: 39.0 mg/kg/injection, schedule: Q01DX Z (sc), vehicle: carboxymethylcellulose (CMC)); 236 % of control (endpoint: median survival time, dose: 65.0 mg/kg/injection, schedule: Q01DX Z (oral), vehicle: carboxymethylcellulose (CMC)); 289 % of control (endpoint: median survival time, dose: 65.0 mg/kg/injection, schedule: Q01DX Z (sc), vehicle: carboxymethylcellulose (CMC)). The T/C (endpoint: median survival time, dose: 108.0 mg/kg/injection, schedule: Q01DX Z (oral), vehicle: carboxymethylcellulose (CMC)) was 178 % of control.

`O=C(CCN1CC1)OCCOC(=O)CCN1CC1`: the T/C reads like this: under setting [10], 100 % of control; under setting [11], 100 % of control; under setting [12], 100 % of control; (endpoint: median survival time, dose: 21.0 mg/kg/injection, schedule: Q01DX Z (sc), vehicle: saline) 111 % of control.

On to `C=CC(CN1CC1)OC(C)=O` (stereo unspecified), for which the T/C runs as follows: (endpoint: median survival time, dose: 2.8 mg/kg/injection, schedule: Q01DX Z (sc), vehicle: saline) 111 % of control; under setting [10], 122 % of control; under setting [11], 150 % of control; under setting [12], 188 % of control; (endpoint: median survival time, dose: 22.0 mg/kg/injection, schedule: Q01DX Z (sc), vehicle: saline) 155 % of control; (endpoint: median survival time, dose: 60.0 mg/kg/injection, schedule: Q01DX Z (sc), vehicle: saline) 122 % of control.

For `C[C@]12C=CC(=O)C=C1CC[C@@H]1[C@@H]2CC[C@]2(C)OC(=O)CC[C@@H]12`, the T/C was 100 % of control (endpoint: median survival time, dose: 23.0 mg/kg/injection, schedule: Q01DX Z (sc), vehicle: methylcellulose (MC)); 100 % of control under setting [8]; 100 % of control under setting [9]; 100 % of control under setting [6]; 100 % of control under setting [7]; 100 % of control (endpoint: median survival time, dose: 500.0 mg/kg/injection, schedule: Q01DX Z (sc), vehicle: methylcellulose (MC)).
